“Also recorded” adds a separate entry of the source.
Tests used:
[1] = system: GBM cells; experiment: Surviving cell count after OMF stimulation in presence of drugs; format: cell-based, human
Description: Histograms of the percentage of cells plotted against the normalized fluorescence intensity (ratio of intensity to the width of the forward scatter) measured by flow cytometry of H2DCF-stained GBM (U87) and normal astroglial (SVGp12) cells reveal nearly a two-fold increase in GBM cells due to OMF, but a ˜50% decrease in astroglial cells (FIG. 44). To test whether cell death is caused by the OMF-induced increase in ROS, a potent antioxidant Trolox was used to counteract it, while measuring the decrease in GBM cell count due to 4 h exposure to OMF. Conversely, it also was asked whether OMF potentiates the cell killing effect of a known ROS inducer, benzylamine. […] Magnetically influenced RPM plays a role in ubiquitously expressed flavoproteins called cryptochromes, which can also generate ROS when perturbed by magnetic fields. Cryptochrome agonists have been recently shown to inhibit cancer stem cell proliferation in GBM. This alternative possibility for generation of ROS by OMF was tested by counting surviving cells after two 4 h sessions of OMF stimulation over 24 h in the presence and absence of a cryptochrome antagonist, KS15. […] According to a certain setup, cells grown in 96-well cell culture plates were OMF stimulated, sham stimulated or unstimulated for 4 h inside humidified CO2 incubator. Paraformaldehyde (4% w/v in PBS) was used for fixation and DAPI was used for staining nuclei. […] Live and dead cell images were captured at 10× magnification on a Nikon Eclipse TE2000-E microscope and analyzed with NIS-Element program or a Carl Zeiss Axio Observer microscope with an onstage incubation chamber having a humidified 5% CO2 supply. […] […] To do this surviving cells were counted after two 4 h sessions of OMF stimulation over 24 h in the presence and absence of a cryptochrome antagonist, KS15.

[2] = system: GBM cells; settings: FCCP added after 2-3 OMF stimulation cycles
Protocol: In cultured GBM156 cells 10-minute stimulation/pause cycles were used to provoke a MPT response.
Oxygen electrode data collection: A thermostatically controlled (37° C.), water-jacketed, glass-walled, Clark-type O2 electrode was used throughout. […] The oncoscillator was attached to the end of a microphone stand and was held perpendicular to the outer glass wall of the electrode, so that there was an air gap of ≈5 mm between the two devices. There was a degree of crosstalk between to stirring bar of the O2-electrode chamber and the oncoscillator; this interaction manifests itself as jumps or drops in the apparent O2 concentrations at the beginning or the end of OMF stimulation. […] The stirrer velocity was therefore optimized to negate the interaction with the oncoscillator.
Tumor culture preparations: GBM and meningioma tumors were taken at the time of (first) excision and given the laboratory ID. They were washed in PBS, chopped with a scalpel and homogenized in a BeadBug™ homogenizer using 1.5 mm Zirconium beads, in an equal volume of PBS. […] The homogenates were grown in DMEM with 20% FBS, 1U GlutaMax™, sodium pyruvate (1 mM), penicillin (100 U/ml), and streptomycin (100 mg/ml). […]
Cells were grown to confluency, counted, harvested using trypsin, washed in ice-cold PBS and stored on ice at 8×10^9 cells/ml. O2 consumption of cells was measured in PBS, 10 mM glucose, 37° C. […]

[3] = system: rat liver mitochondria (RLM); experiment: O2 electrode trace of rat liver mitochondria metabolizing succinate under OMF stimulation; format: biochemical; settings: 5 μM bongkrekic acid, RLM metabolizing 5 mM succinate
Protocol: FIG. 18A illustrates an apparatus 1800 used to perform the procedures outlined above. The apparatus 1800 includes oncoscillator component and generates OMF by rotating an N52 permanent Neodymium rare earth magnet. The oncoscillator assembly is held by a microphone stand, placed next to the water jacketed O2 electrode with a 5 mm air gap, halting vibration transfer. The oncoscillator is positioned so that the center of 1 ml media chamber is exposed to a magnetic field of ≈8 mT. The rotation of the oncoscillator magnet has a small artifactual effect on the O2 electrode stirrer bar giving rise to an apparent drop or rise in O2 levels.
The effect of OMF on energized rat liver mitochondria (RLM) was examined. […] After the addition of succinate the slow ‘State 4’ consumption of O2 (≈10 e^−s^−1) that is typical of RLM oxidizing succinate in the absence of ADP (‘State 3’) or uncouplers is observed. In state 4 the electron flux from succinate dehydrogenase, the bc1 complex and cytochrome c oxidase is controlled by the presence of a large membrane potential (ΔΨ) and ΔpH, estimated to be […] and 11 mV, respectively, under similar conditions.
When OMF stimulation is initiated, respiration is completely halted for the whole 5-min OMF stimulation period. […] After this second stimulation regime ended, respiration restarted at the rate recorded prior to the stimulation cycle. […]

[4] = system: DIPG cells; experiment: O2 consumption of primary DIPG cells under OMF stimulation cycles; format: cell-based, human; settings: 5 μM bongkrekic acid
Description: Before OMF stimulation the O2 consumption rate is ≈40 pMol O2 sec^−1 million cells^−1, similar to that seen in Chinese hamster ovary cells (100%). During the first five minutes of OMF stimulation cycle, respiration rate falls by a third, and during the first fifteen-minute pause this respiration rate remains at 65% of the initial rate. During the second stimulation cycle, respiration falls to only 45% of the control rate. When the cycle ends the rate rises to 58%, but over the 15-minute pause the flux slows down. During the third stimulation cycle, O2 consumption is held at half the initial rate, but when stimulation ceases a rapid increase in respiration is observed, which increases over the first 10 min and then begins to slow.
The large increase in mitochondrial electron flux that is observed at the end of the third cycle is consistent with a relatively homogenous population of cells, all undergoing MPT simultaneously. To test if this is the correct interpretation of the data, the experiment was rerun, but this time in the presence of 5 μM bongkrekic acid (FIG. 20B). Blocking the ANT with bongkrekic acid slows the steady state mitochondrial electron flux to 55% of that seen in its absence (both rates arc normalized to 100% in each panel for case of interpretation). […]
O2 consumption of cells was measured in PBS, 10 mM glucose, 37° C. […]

[5] = system: high-grade meningioma cells; experiment: O2 consumption of primary high-grade meningioma cells under OMF stimulation cycles; format: cell-based, human; settings: cells pretreated with bongkrekic acid
Description: FIG. 21 follows the format of FIG. 20, but this time primary high-grade meningioma cells were used, showing that OMF stimulation cycles cause MPT. In these cells stimulation causes a 75% drop in the electron flux, and after the end of the first cycle, the cells maintain only half their initial rate (FIG. 21A). During the second cycle of stimulation mitochondrial respiration is completely halted, and as soon as the stimulation stops there is a burst of O2 uptake ≥6 times the initial steady state level. This rate drops in a first order manner.
Oxygen electrode data collection: A thermostatically controlled (37° C.), water-jacketed, glass-walled, Clark-type O2 electrode was used throughout. […] There was a degree of crosstalk between to stirring bar of the O2-electrode chamber and the oncoscillator; this interaction manifests itself as jumps or drops in the apparent O2 concentrations at the beginning or the end of OMF stimulation.
The homogenates were grown in DMEM with 20% FBS, 1U GlutaMax™, sodium pyruvate (1 mM), penicillin (100 U/ml), and streptomycin ([…]).
O2 consumption of cells was measured in PBS, 10 mM glucose, 37° C. 2 μM carbonyl cyanide trifluoromethoxyphenylhydrazone.

## NCc1ccccc1 [benzylamine]
[1]; 4 h exposure to OMF, benzylamine
  potentiation by OMF of the cell killing effect of the ROS inducer: predictions are confirmed

## Cc1c(C)c2c(c(C)c1O)CCC(C)(C(=O)O)O2 (stereo not drawn) [Trolox]
[1]; 4 h exposure to OMF, antioxidant Trolox
  counteraction of the decrease in GBM cell count due to OMF-induced ROS: predictions are confirmed

## N#CC(C#N)=NNc1ccc(OC(F)(F)F)cc1 [FCCP, carbonyl cyanide-p-trifluoromethoxyphenylhydrazone]
[2]
  O2 consumption after addition of FCCP: did not lead to an increase in O2 consumption

## CO[C@H](C/C=C\C=C\CC/C=C/C[C@H](C)/C=C/C(=C\C(=O)O)CC(=O)O)/C(C)=C\C=C(/C)C(=O)O [bongkrekic acid]
[3]
  mitochondrial 'State 4' flux: inhibits
[3]; OMF stimulation
  oncoscillator-induced permeability transition: completely abolishes
[4]; 2×10^6/ml DIPG cells in glucose supplemented PBS
  steady state mitochondrial electron flux, % of that seen in absence of bongkrekic acid: 55%
[4]; repeated OMF stimulation cycles
  OMF-induced permeability transition (increase in respiration rate): no increase in rate indicative of the permeability transition; also recorded: blocking the permeability
[5]
  OMF-induced increase in O2 uptake rate (MPT): abolished; also recorded: blocks the permeability

## CCO[C@H](Cc1cccc(/C(C)=N/OCc2ccc(Br)cc2)c1)C(=O)O [KS15]
[1]; two 4 h sessions of OMF stimulation over 24 h, presence vs absence of KS15
  effect on the decrease in cell count produced by OMF: significant partial attenuation
